In patent publication US20240109855A1, “ANTI-QUORUM SENSING, ANTI-BIOFILM, AND INFLAMMATION ATTENUATING COMPOUNDS, COMPOSITIONS, AND METHODS OF USING SAME” (priority 2021, published 2024):
Entries after “also recorded” stand apart in the source; their conditions may differ.

Columns and labels:
Format in all cases: cell-based
[1] = system: Chromobacterium violaceum (CV026); assay: Quorum sensing inhibition test with bio-reporter CV026 (TLC overlay); for Degree of quorum sensing inhibition (QSI), CV026: key: −: no inhibition; +: low inhibition; ++: medium inhibition; +++: strong inhibition
In short: (§1)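 Compounds (40 mM in acetonitrile, 20 μl) were spotted on TLC and overlaid with soft agar reporter cultures, incubated overnight at 30 °C. CV026 was in LB with 500 nM 3-oxo-C6 (purple pigment), and KYC55 was in AT medium with 5 nM 3-oxo-C8 and 60 μg/ml X-gal (blue). Inhibition zone diameter was measured.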

[2] = system: Agrobacterium tumefaciens (KYC55); assay: Quorum sensing inhibition test with bio-reporter KYC55 (TLC overlay); for Degree of quorum sensing inhibition (QSI), KYC55: key: −: no inhibition; +: low inhibition; ++: medium inhibition; +++: strong inhibition
In short: as §1

[3] = system: QS genes lasR, lasI, rhlR and rhlI; assay: RT-qPCR of P. aeruginosa (PA01) QS genes; settings: PA01 co-incubated seven hours
Procedure: FIGS. 13A-13C include vertical bar graphs showing the dose response inhibition of QS by PL-18. Bioluminescence indicator bacteria containing the P. aeruginosa reporter genes rhlRI (13A) and lasRI (13B) were used. The reporter bacteria were incubated with and range of PL-18 concentrations or DMSO, together with (+AI) or without (−AI) the proper auto-inducer. Bioluminescence was recorded at 15 min intervals for 10 hrs at 37° C. The maximum signal in each group was normalized to the inducer's bioluminescence maximum signal with 0.5% DMSO. Mean±SD, One-way ANOVA followed by Dunett's multiple comparisons test was performed (p-value ***≤0.0002). N=9 (triplicate samples in three independent experiments). (13C) RT-qPCR of P. aeruginosa (PA01) QS genes. PA01 was co-incubated with two doses of PL-18 for seven hours, lysed and total RNA was extracted and converted to cDNA followed by target genes qPCR amplification. N≥16, Mean±SD. Two-way ANOVA, 95% confidence interval.
The inhibition of rhlR-rhlI system was slightly better than the inhibition of lasR-lasI. […] The relative transcription levels of QS genes lasR, lasI, rhlR and rhlI, was determined by RT-qPCR.

pyocyanin = assay: Pyocyanin secretion by P. aeruginosa; settings: cell-free culture medium, spectrometry
Procedure: (§2) FIGS. 14A-14B include vertical bar graphs showing that PL-18 inhibition effects on secretion of virulence factors by P. aeruginosa. (14A) Pyocyanin was extracted in the chloroform-HCl method and measured in a plate-reader at 380 nm. (14B) Determination of rhamnolipids content was measured at 570 nm of the cell-free supernatant after adjustment to pH-2. All results were normalized and compere to the control group-DMSO 0.16%. Mean±SD, One-way ANOVA followed by Dunett's multiple comparisons test (p-values *≤0.0332, ***≤0.0002). N=9 (in three independent experiments).
(§3) To test whether PL-18 inhibits virulence effectors secreted by P. aeruginosa, the relative abundance of the virulence factors pyocyanin and rhamnolipids in the bacterial cell-free culture medium was determined by spectrometry.

rhamnolipids = assay: Rhamnolipids secretion by P. aeruginosa; settings: cell-free culture medium, spectrometry
Procedure: as §2, §3

P. aeruginosa = assay: Toxicity to P. aeruginosa (CFU scoring, kinetic O.D.600nm); settings: at the concentrations tested, data not shown
Procedure: The inventors also determined the toxicity of PL-18 to P. aeruginosa. Viability was tested by scoring CFUs of PL-18 treated P. aeruginosa cultures and bacterial growth was determined by incubation with PL-18 for kinetic O.D.600nm measurements.

P. aeruginosa biofilm = P. aeruginosa biofilm formation under flow conditions (CLSM, IMARIS)
Procedure: FIGS. 15A-15B include fluorescent micrographs and a vertical bar graph showing that Pl-18 inhibits P. aeruginosa biofilm formation. The biofilm was grown under continuous flow conditions for 72 hr with 10 μM, 40 μM PL-18 or 0.04% DMSO. CLSM images visualize viable bacteria stained green and dead bacteria red using the BacLight® Dead/Live Kit. Scanned areas were 318 μm×318 μm. (15A) IMARIS images. Scale bar is 50 μm. (15B) A graph showing the mean±SD of the biofilm volume generated from three independent sets of flow-cell experiments. Two-way ANOVA Bonferroni's multiple comparisons test, 95% confidence interval (p-values ***≤0.0002).
The anti-biofilm activity of PL-18 was tested in flow conditions for 72 hours. The biofilm was visualized by CLSM and quantified using the IMARIS software.

[4] = Table 2, piperlongumine derivatives

**Q.** How did the “Degree of quorum sensing inhibition (QSI), CV026” value [1, 4] turn out when `COc1cc(/C=C/C(=O)N2CCC=CC2=O)cc(O)c1O` [PL-18, Dihydroxy piperlongumine] was run?
**A.** ++

**Q.** What about the “QSI activity against CV026, in words” value ([1]; running text) of the same compound?
**A.** moderate activity

**Q.** And the “Degree of quorum sensing inhibition (QSI), KYC55” value [2, 4]?
**A.** +++

**Q.** And the “QSI activity against KYC55, in words” value ([2]; running text)?
**A.** strong quorum sensing inhibition

**Q.** What about the “Relative transcription levels of QS genes lasR, lasI, rhlR and rhlI” value [3] of the same compound?
**A.** strongly decreased

**Q.** And the “Inhibition of pyocyanin secretion” value (pyocyanin)?
**A.** inhibit both virulence factors in a dose dependent manner; also recorded: effectively attenuate

**Q.** And the “Inhibition of rhamnolipids secretion” value (rhamnolipids)?
**A.** inhibit both virulence factors in a dose dependent manner; also recorded: effectively attenuate

**Q.** What about the “Effect on P. aeruginosa growth (O.D.600nm)” value (P. aeruginosa) of the same compound?
**A.** did not affect P. aeruginosa growth

**Q.** What about the “Toxicity to P. aeruginosa (viability, CFUs)” value (P. aeruginosa) of the same compound?
**A.** non-toxic

**Q.** What about the inhibition at 40 µM (P. aeruginosa biofilm; Pseudomonas aeruginosa, 72 h, read-out: Inhibition of P. aeruginosa biofilm formation) of the same compound?
**A.** 85%

**Q.** And the “Attenuation of biofilm formation, in words” value (P. aeruginosa biofilm; running text)?
**A.** effectively attenuate
